Source: PubChem BioAssay AID1949 (Southern Research Institute, 2009)
Converted amounts (≈) assume the structure as drawn. Results filed as inconclusive are left out. The source made the active and inactive calls. The rule behind the calls is not given here.

system: M. tuberculosis H37Rv growth inhibition; assay: Confirmatory growth inhibition assay against Mycobacterium tuberculosis H37Rv, potency (AID 1949);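 note: bacteria grown 7 days with compound before Alamar blue readout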

First: O=C(Nc1ccc(OC(F)(F)F)cc1)Nc1cccc([N+](=O)[O-])c1
Second: O=C(Nc1ccc(OC(F)(F)C(F)F)cc1)Nc1cccc(Cl)c1
The IC50 of the first is 3.9-fold lower: 0.19 µg/mL (≈ 0.557 µM) for the first, 0.75 µg/mL (≈ 2.07 µM) for the second.

Going from `Cc1cccc(C(=O)Nc2nc3ccccc3[nH]2)c1` to `COc1ccc2nc(C)cc(Nc3ccccc3O)c2c1`, the IC50 rises from 0.74 µg/mL (≈ 2.94 µM) to 8.28 µg/mL (≈ 29.5 µM) (11-fold).

Compared with `Oc1cccc(Nc2nc(NCc3ccccc3)c3ccccc3n2)c1`, `c1ccc(COc2ccc3ccccc3c2CNCc2cccnc2)cc1` is 8.1-fold higher in IC50: 0.98 µg/mL (≈ 2.86 µM) for the first, 7.91 µg/mL (≈ 22.3 µM) for the second.

Compared with `O=C(N=Nc1c(O)[nH]c2ccccc12)c1ccc(Cl)cc1`, `Oc1ccccc1-c1n[nH]c(/C=C/c2ccc(Br)cc2)n1` is 14-fold lower in IC50: 46.7 µg/mL (≈ 156 µM) for the first, 3.27 µg/mL (≈ 9.56 µM) for the second.

First: CCOC(=O)c1c(NC(=O)CN2CCN(C)CC2)sc2c1CCC(C)C2 (stereo not drawn)
Second: CCOC(=O)c1c(NC(=S)NC2CCN(Cc3ccccc3)CC2)sc(C)c1-c1ccccc1
The IC50 of the first is 4.2-fold higher: 5.8 µg/mL (≈ 15.3 µM) for the first, 1.38 µg/mL (≈ 2.8 µM) for the second.

`COc1cc(C(=O)Oc2ccc(Cl)c3cccnc23)cc(OC)c1OC` and `COc1ccc(CNc2ccc3c(c2)ncn3-c2ccccc2)cc1OC` are within 1.5-fold of each other in IC50: 11.3 µg/mL (≈ 30.2 µM) for the first, 8.63 µg/mL (≈ 24 µM) for the second.

`Cc1ccc(C(=O)Nc2ccc(N3CCCC3)c(Cl)c2)c(C)c1` and `Cc1ccc(CN2C(=O)C(=O)c3cc(Br)ccc32)c(C)c1` are within 1.5-fold of each other in IC50: 6.72 µg/mL (≈ 20.4 µM) for the first, 8.44 µg/mL (≈ 24.5 µM) for the second.

Going from `COc1ccc(CNC(=O)c2c(N)nc3sc4c(c3c2C(F)(F)F)CCC4)cc1` to `O=C(NCc1cccs1)c1cc2n(n1)C(C(F)(F)F)CC(c1ccc3c(c1)OCO3)N2` (stereo not drawn), the IC50 rises from 0.31 µg/mL (≈ 0.736 µM) to 1.5 µg/mL (≈ 3.33 µM) (4.8-fold).

Compared with `CCC(C(=O)Nc1ccc(CC(=O)OC)cc1)c1ccccc1` (stereo not drawn), `CC(C)OC(=O)C(C)Oc1ccc(C(=O)NCCc2ccccc2)cc1` (stereo not drawn) is 70-fold higher in IC50: 0.69 µg/mL (≈ 2.22 µM) for the first, 48.3 µg/mL (≈ 136 µM) for the second.

First: CC1(C)CC(=O)C2=C(C1)NC1=C(C(=O)c3ccccc31)C2c1ccc(C(F)(F)F)cc1 (stereo not drawn)
Second: COc1ccc(C2=CC(=O)c3ccccc3C2=O)cc1
The IC50 of the first is 8.6-fold higher: 30.3 µg/mL (≈ 71.7 µM) for the first, 3.53 µg/mL (≈ 13.4 µM) for the second.

Compared with `CCN(c1ccccc1)S(=O)(=O)c1ccc(NC(=O)Nc2ccc(Cl)cc2)cc1`, `O=C(Nc1ccc(Cl)cc1)Nc1ccc(F)c(F)c1` is 6.1-fold lower in IC50: 5.77 µg/mL (≈ 13.4 µM) for the first, 0.94 µg/mL (≈ 3.33 µM) for the second.

`Clc1ccc(COc2ccc3ccccc3c2CNCc2cccnc2)c(Cl)c1` and `Cc1ccc(-n2cc(-c3ccccc3)c3c(NCc4cccnc4)ncnc32)cc1` are within 1.5-fold of each other in IC50: 2.7 µg/mL (≈ 6.38 µM) for the first, 3.25 µg/mL (≈ 8.3 µM) for the second.

First: O=C1c2cccc3cccc(c23)C(=O)N1CCN1CCN(CC(O)COc2ccccc2Cl)CC1 (stereo not drawn)
Second: COC(=O)c1ccc(OCC(O)CN2CCN(c3cc(Cl)ccc3C)CC2)cc1 (stereo not drawn)
The IC50 of the first is 1.8-fold lower: 2.93 µg/mL (≈ 5.93 µM) for the first, 5.13 µg/mL (≈ 12.2 µM) for the second.

Compared with `O=C(Nc1ccc2c(c1)OCCO2)C(Cl)Cl`, `CC(C)(C)c1ccc(OCC(=O)Nc2ccc3c(c2)OCCO3)c(Br)c1` is 1.6-fold lower in IC50: 6.65 µg/mL (≈ 25.4 µM) for the first, 4.25 µg/mL (≈ 10.1 µM) for the second.

`O=C(Nc1nnc(-c2ccccc2Cl)o1)c1ccco1` and `CCn1c(-c2ccco2)nc2ccccc21` are within 1.5-fold of each other in IC50: 1.83 µg/mL (≈ 6.32 µM) for the first, 2.39 µg/mL (≈ 11.3 µM) for the second.

Compared with `Cc1ccccc1/C=C/c1ccc2cccc(O)c2n1`, `O=C(Nc1ccc2ccccc2c1)Nc1ccc2snnc2c1` is higher in IC50: under 0.1 µg/mL for the first, 0.9 µg/mL (≈ 2.81 µM) for the second.

First: O=Cc1cccc(OCC(=O)Nc2cccc(Cl)c2)c1
Second: O=C(Nc1cccc(Cl)c1)Nc1ccccc1OC(F)(F)C(F)F
The IC50 of the first is 240-fold higher: 45 µg/mL (≈ 155 µM) for the first, 0.19 µg/mL (≈ 0.524 µM) for the second.

`CC(=O)c1ccc(NC(=O)CSc2ccc(F)cc2)cc1` and `COC(=O)c1ccc(NC(=O)CSc2nnc(-c3ccc(Br)cc3)o2)cc1` are within 1.5-fold of each other in IC50: 7.95 µg/mL (≈ 26.2 µM) for the first, 5.83 µg/mL (≈ 13 µM) for the second.

First: Cc1cccc(-n2nc([N+](=O)[O-])c(=NCCC3=CCCCC3)n2O)c1
Second: Cc1cc(C)c(C(=O)/C=C/c2cccc([N+](=O)[O-])c2)cc1C
The IC50 of the first is 10-fold higher: 3.62 µg/mL (≈ 10.5 µM) for the first, 0.36 µg/mL (≈ 1.22 µM) for the second.

Compared with `COc1ccc(OCC(=O)Nc2cccc(-c3nc4ccccc4c(=O)o3)c2)cc1`, `CCc1cc2c(=O)c(Oc3ccc(-c4ccccc4)cc3)coc2cc1OC(C)=O` is 6.3-fold lower in IC50: 37.1 µg/mL (≈ 92.2 µM) for the first, 5.89 µg/mL (≈ 14.7 µM) for the second.

Compared with `COc1ccc(C(=O)C(CN2CCOCC2)c2ccccc2)cc1` (stereo not drawn), `O=C(Oc1ccccc1)c1ccc(S(=O)(=O)N2CCCCC2)cc1` is 2.9-fold lower in IC50: 2.09 µg/mL (≈ 6.42 µM) for the first, 0.73 µg/mL (≈ 2.11 µM) for the second.

First: COc1cccc(Nc2nc(-c3ccccn3)cs2)c1
Second: Cc1cccc(OCc2nnc(SCC(=O)NCCc3ccccc3)o2)c1
The IC50 of the first is 2.7-fold lower: 0.17 µg/mL (≈ 0.6 µM) for the first, 0.46 µg/mL (≈ 1.2 µM) for the second.

Going from `CCOc1cc2c3c(c1)C1(C(=O)N3C(C)(C)C=C2C)C(C#N)=C(N)Oc2cc(O)ccc21` (stereo not drawn) to `CCc1cc2c(=O)c(-c3ccc4c(c3)OCCO4)coc2cc1OCC(=O)OC(C)C`, the IC50 rises from 3.09 µg/mL (≈ 7.19 µM) to 5.83 µg/mL (≈ 13.7 µM) (1.9-fold).

`S=C(NCCc1ccccc1)Nc1ccc(Nc2ccccc2)cc1` and `Cc1ccc(CNC(=S)Nc2ccc(N(C)C)cc2)cc1` are within 1.5-fold of each other in IC50: 3.85 µg/mL (≈ 11.1 µM) for the first, 5.34 µg/mL (≈ 17.8 µM) for the second.

Going from `CCOC(=O)C(C)n1cnc2scc(-c3ccc(CC)cc3)c2c1=O` (stereo not drawn) to `CCOC(=O)Cc1c(C)nc2c(-c3ccc(Cl)cc3)c[nH]n2c1=O`, the IC50 falls from 3.9 µg/mL (≈ 10.9 µM) to 1.95 µg/mL (≈ 5.64 µM) (2-fold).

First: O=C(Nc1ccc(F)cc1)c1ccc(C#CC2(O)CCCCC2)cc1
Second: CCC(C)Oc1ccc(C(=O)NC(=S)Nc2ccc(NC(=O)c3ccco3)cc2)cc1 (stereo not drawn)
The IC50 of the first is 29-fold higher: 10.6 µg/mL (≈ 31.4 µM) for the first, 0.36 µg/mL (≈ 0.823 µM) for the second.

Going from `CCC(C)NCCCCOc1ccc(Cl)cc1C(C)(C)C` (stereo not drawn) to `C=CCNCCCOc1ccc(Cl)cc1C(C)(C)C`, the IC50 rises from 4.49 µg/mL (≈ 14.4 µM) to 6.96 µg/mL (≈ 24.7 µM) (1.6-fold).

Compared with `CCc1cc2c(=O)c(-c3ccc4c(c3)OCCCO4)coc2cc1OC(C)C(=O)OC` (stereo not drawn), `COc1ccccc1-c1coc2cc(OCC(=O)OC3CCCCC3)ccc2c1=O` is 170-fold lower in IC50: 39.9 µg/mL (≈ 94.1 µM) for the first, 0.24 µg/mL (≈ 0.588 µM) for the second.

Compared with `CCOc1ccccc1C(=O)Nc1ccccc1O`, `CCOc1ccc(C(=O)NC(=S)Nc2ccc(CN3CCOCC3)cc2)cc1Cl` is 1.8-fold higher in IC50: 8.93 µg/mL (≈ 34.7 µM) for the first, 15.7 µg/mL (≈ 36.2 µM) for the second.

First: Cc1cnc(NC(=O)CSc2ccc(Cl)cc2)s1
Second: Cc1cc(C)nc(/N=C(\N)Nc2ccc(OCc3ccc(Cl)cc3)cc2)n1
The IC50 of the first is 21-fold lower: 1.67 µg/mL (≈ 5.59 µM) for the first, 34.4 µg/mL (≈ 90.2 µM) for the second.

Compared with `O=C(Cc1ccc(F)cc1)Nc1ccc(Cl)c(C(F)(F)F)c1`, `CSc1ncc(C(=O)Nc2cccc(C(F)(F)F)c2)cn1` is lower in IC50: 1.2 µg/mL (≈ 3.62 µM) for the first, under 0.1 µg/mL for the second.

Going from `COC(=O)C(CC(=O)c1ccc(Br)cc1)n1ccnc1` (stereo not drawn) to `C=CCc1cc(C)ccc1OCCCn1ccnc1`, the IC50 rises from 0.7 µg/mL (≈ 2.08 µM) to 3.52 µg/mL (≈ 13.7 µM) (5-fold).

Compared with `CC(C(=O)Oc1cccc2cccnc12)N1C(=O)C2C3C=CC(C4CC34)C2C1=O` (stereo not drawn), `Cc1oc2ccc(OCC(=O)OCc3ccccc3)cc2c1C(=O)OC(C)C` is 2.9-fold higher in IC50: 3.16 µg/mL (≈ 8.14 µM) for the first, 9.08 µg/mL (≈ 23.7 µM) for the second.

Compared with `Cc1ccc(-c2[nH]c(-c3cc([N+](=O)[O-])ccc3O)nc2-c2ccccc2)cc1`, `Cc1ccc(S(=O)(=O)c2nc(S(=O)(=O)Cc3ccc([N+](=O)[O-])cc3)sc2Cl)cc1` is 5.4-fold lower in IC50: 5.58 µg/mL (≈ 15 µM) for the first, 1.04 µg/mL (≈ 2.2 µM) for the second.

First: CCC(C)c1ccc(OCC(=O)Nc2ccc(OC)c([N+](=O)[O-])c2)cc1 (stereo not drawn)
Second: N#Cc1ccc(-c2ccc(OCC(N)=O)cc2)cc1
The IC50 of the first is higher: 1.61 µg/mL (≈ 4.49 µM) for the first, under 0.1 µg/mL for the second.

Compared with `CCC(C)c1ccccc1OCCCNC1CCCC1` (stereo not drawn), `O=C1NN=C2C1=NC1(CCCCC1)Cc1ccccc12` is 88-fold lower in IC50: 8.81 µg/mL (≈ 32 µM) for the first, 0.1 µg/mL (≈ 0.374 µM) for the second.

Compared with `O=[N+]([O-])c1c(Sc2ncnc3ccccc23)ccc2nsnc12`, `C=CCN(CC=C)C(=S)NC(=O)c1ccc(F)cc1` is 27-fold lower in IC50: 22.2 µg/mL (≈ 65.1 µM) for the first, 0.81 µg/mL (≈ 2.91 µM) for the second.

In the case of `Cc1cc(C)c(N2CCN(S(=O)(=O)c3ccc(Cl)cc3)CC2)c(C)c1`, the IC50 is reported as > 50 µg/mL (inactive).
`Cc1ccc(-c2nc(NC(=O)C34CC5CC(CC(C5)C3)C4)sc2C)cc1` was tested, and the IC50 was > 50 µg/mL (inactive).
For `COC(=O)c1cccc(NC(=O)COc2ccc(C(C)(C)C)cc2)c1`, the IC50 was > 50 µg/mL (inactive).
With `COc1cc(Br)cc2cc(C(=O)Nc3ccccc3O)c(=O)oc12` the IC50 was > 50 µg/mL (inactive).
In the case of `Cc1occc1C(=O)Nc1sc(Cc2ccccc2)cc1C(N)=O`, the IC50 is reported as > 50 µg/mL (inactive).
With `CCc1nccn1S(=O)(=O)c1ccccc1[N+](=O)[O-]` the IC50 was > 50 µg/mL (inactive).
In the case of `COc1ccc(-n2nc3ccc(NC(=O)c4ncn[nH]4)cc3n2)cc1Cl`, the IC50 is reported as > 50 µg/mL (inactive).
`CCC(C)Oc1c(Cl)cc(/C=C\[N+](=O)[O-])cc1OC` (stereo not drawn) was tested, and the IC50 was > 50 µg/mL (inactive).
In the case of `C=CCN(CC=C)C(=S)NC(=O)c1ccc(OC)cc1`, the IC50 is reported as > 50 µg/mL (inactive).
